Measurements reported in a melting point compilation (Tetko et al.; mined from patent text by program, amines drawn as free bases though some values may be those of a salt).

Row | SMILES | melting point
1 | CCC(CC)c1ccc(Cl)c2nc3n(c12)CCCCN3c1cnc(N2CCCC2)cc1C | 160 to 161 °C
2 | Brc1ccc(-c2cc(-c3ccc(Br)cc3)cc(-c3ccc(Br)cc3)c2)cc1 | 254 to 255 °C
3 | COc1cc(C(=O)N2CC3CC(C2)CN(C(C)C)C3)cc(OC)c1OC | 67.5 to 69.5 °C
4 | CSc1c(NC(C)=O)cnc2ccccc12 | 137 to 138 °C
5 | O=c1oc2c(Cl)cccc2c(O)c1-c1ccccc1 | 245 °C
6 | Fc1ccc(-c2nnc(S)nc2-c2ccc(F)cc2)cc1 | 180 to 182 °C
7 | c1ccc(-c2nn3c(c2-c2ccnc4cc(OCCN5CCOCC5)ccc24)CCCCC3)nc1 | 157 to 159 °C
8 | CN1C(=O)CN(C(N)=O)C(c2ccccc2)c2cc(Cl)ccc21 (centres undefined) | 214 to 217 °C
9 | Cc1ccc(C[C@H](N)[C@H](O)c2ccc(F)cc2)cc1OC(F)(F)C(F)F (racemic) | 112 to 113 °C
10 | CS(=O)(=O)c1ccccc1OCCF | 67 to 69 °C
11 | CCCc1nc(N)nc(N)c1N1CCNCC1 | 175 to 176 °C
12 | COC(=O)CCc1ccc(CNC(=O)[C@@H](CCCNC(N)=N[N+](=O)[O-])NC(=O)C(c2ccccc2)c2ccccc2)cc1 | 159 to 161 °C
13 | CCOc1nc(C)nc2oc(-c3ccco3)nc12 | 104 to 106 °C
14 | Cc1c(Cc2ccccc2)c(=O)oc2cc(OCc3nnn[nH]3)cc(OCc3nnn[nH]3)c12 | 229 to 233 °C
15 | N#CCOc1ccc(Cl)c(Cl)c1 | 61 to 62 °C
16 | N#Cc1cnc2sc(-c3cccc(C=O)c3)cc2c1Nc1cccc2[nH]ccc12 | > 245 °C
17 | Cc1cccc(-c2nc(N)sc2-c2ccnc(-c3ccc(OC(F)(F)F)cc3)c2)n1 | 222 to 224 °C
18 | Cc1c(S(N)(=O)=O)c(-c2nnc(S)o2)nn1C | 243 to 245 °C
19 | Nc1c(N=Nc2ccc(Cl)cc2)ccc2c(S(N)(=O)=O)cccc12 | 258 °C
20 | COc1ccc(-c2[nH]nc3c2C(=O)c2c(NC(=O)Cc4ccc5c(c4)OCO5)cccc2-3)cc1 | 297 °C
21 | Cn1c(C(F)(F)F)c([N+](=O)[O-])c2ccc(Cl)cc21 | 157 to 160 °C
22 | COc1cc(OCC2CCCO2)ccc1/C=C/c1cc(/C=C/c2ccc3cc[nH]c3c2)n[nH]1 (centres undefined) | 218 to 220 °C
23 | CCn1ncc2c3noc(-c4cccc(F)c4)c3cnc21 | 182 to 184 °C
24 | COc1ccc(-c2sc3cc(OC)ccc3c2Br)cc1 | 83 °C
25 | COc1ccc(C(c2ccc(F)cc2)C(c2ccc(OC)cc2)C(F)(F)F)cc1 (centres undefined) | 132 to 135 °C
26 | Cc1cnn(Cc2ccc3c(c2)-c2[nH]nc(-c4ccsc4)c2C3)c1 | 262 to 263 °C
27 | C[C@H](N)Cn1ncc2ccc(C(N)=O)cc21 | 170 to 172 °C

Row | SMILES | melting point
28 | CC(C)OC(=O)N1CCC(c2ccc3oc(-c4ccc(S(C)(=O)=O)cc4F)nc3c2)CC1 | 151 to 156 °C
29 | CC(C)Nc1nc(S(C)(=O)=O)nc(Cl)c1-c1c(F)cccc1Cl | 145 to 149 °C
30 | O=C(c1c(Cl)cccc1[N+](=O)[O-])n1ccnc1-c1ccccc1 | 147 to 148 °C
31 | COc1ccc2c(ccn2CC(=O)c2ccccc2Br)n1 | 116 to 117 °C
32 | CC(=O)Nn1c(-c2ccccc2)nc2cc(C(F)(F)F)ccc21 | 150 to 154 °C
33 | OCC1CCn2c(nc3ccccc32)S1 (centres undefined) | 112 to 113 °C
34 | O=C1Nc2ccc(C3CCCCC3)cc2C12OCCO2 | 178 to 180 °C
35 | N#Cc1nn(-c2c(Cl)cc(C(F)(F)F)cc2Cl)c(C(O)C(F)(F)F)c1SC(F)(F)F (centres undefined) | 106 °C
36 | COc1ccc(N2CCOCC2)c2sc(C#N)nc12 | 145 to 147 °C
37 | CC(C)NCC#CC(O)c1ccccc1-c1ccccc1 (centres undefined) | 116 to 119 °C
38 | O=C(Nc1ccccc1F)O[C@@H]1CN=C(c2ccccc2)O[C@H]1c1ccccc1 (racemic) | 98 °C
39 | c1ccc(C(c2ccccc2)(c2ccccc2)N2CCCCC2)cc1 | 156 to 158 °C
40 | COc1ccc(-c2cncc(-c3cn(C)c(=O)n3-c3ccc(C(C)(C)C#N)cc3)c2)cc1 | 200 °C
41 | COC(=O)C1CCN(Cc2ccc(-c3ccc4c(Nc5ccc(Sc6nccn6C)c(Cl)c5)c(C#N)cnc4c3)nc2)CC1 | 135 to 137 °C
42 | Nc1ncc(-c2cccc(Nc3ccc(-c4ccco4)cc3[N+](=O)[O-])c2)cn1 | 178 to 180 °C
43 | Nc1cc(-c2c(-c3ccc(Cl)cc3)nc3cccnn23)ccn1 | 252 to 253 °C
44 | Cc1nc(C(Cl)(Cl)Cl)nc(OC(=O)N(C)C)c1Cl | 87 to 88 °C
45 | Clc1ccc(Nc2cncc(-n3ncc4ccccc43)n2)cc1 | 204 to 207 °C
46 | Cc1cc(O)c(C=O)c(C)c1Cl | 90 to 92 °C
47 | Nc1ccccc1C(=O)C1CC1 | 46 to 48 °C
48 | Cn1c(=NC(=S)Nc2ccccc2)n(C)c2ccccc21 | 245 °C
49 | COC(=O)C(Cc1ccccc1)Oc1ccc2cc(-c3csc(-c4ccccc4)n3)ccc2c1Br (centres undefined) | 96 to 101 °C
50 | CCOc1cc2c(Nc3cc(OC)c(Cl)cc3Cl)c(C#N)cnc2cc1OCCCN1CCN(C)CC1 | 137 to 138 °C
51 | COCCN1CCN(CC2CCN(c3ccc(Cl)cc3)C2=O)CC1 (centres undefined) | 103 to 105 °C
52 | COc1cc(C(C)C)c2c(c1)S(=O)(=O)N(COC(=O)c1sccc1C)C2=O | 132 to 134 °C
53 | Cc1nc2c(N)nc3ccccc3c2n1CCOC/C=C/c1ccccc1 | 112 °C
54 | Cc1c(Cl)ccc(N)c1Cl | 56 to 57.5 °C

Second part, the compound after the results:

Row | melting point | SMILES
55 | 159 to 160 °C | O=C(COc1ccccc1)NC1C(=O)N(C(O)(Cc2ccccc2)C(=O)O)C1CI (centres undefined)
56 | 178 to 181 °C | O=C(O)CC1(c2cccc(Cl)c2)CNC(=O)C1 (centres undefined)
57 | 69 to 71 °C | CSC(C[N+](=O)[O-])NCCSCc1cc(C)c(CN(C)C)s1 (centres undefined)
58 | 263 to 265 °C | CC1(C)OC2OC(C3NC(=O)CC3O)C(O)C2O1 (centres undefined)
59 | 157 °C | CC(=O)Nc1ccc([N+](=O)[O-])cc1OCC(O)CN1C(=O)CCC1=O (centres undefined)
60 | 59 to 60 °C | CCCCCCS(=O)c1c(O)cc(C)oc1=O (centres undefined)
61 | 111 to 113 °C | CC(N)C(=O)Nc1coc2cc(NS(C)(=O)=O)c(Oc3ccccc3)cc2c1=O (centres undefined)
62 | 169 to 172 °C | Cc1cc(C(=O)N2Cc3ccc(C(=O)N(C)CC(O)CO)n3Cc3ccccc32)ccc1-c1ccccc1C(F)(F)F (centres undefined)
63 | 248 to 251 °C | Cc1nc2c3c(ccn2c1C)C(=O)[C@](O)(Cc1ccccc1)[C@@H](c1ccccc1)N3
64 | 157 to 159 °C | CCn1c(COC(=O)NC(=O)C(C)(C)C)nc(C(C)C)c1Sc1cc(Cl)cc(Cl)c1
65 | 175 to 180 °C | O=C(c1cc(NS(=O)(=O)c2ccccc2)ccn1)N(O)Cc1ccccc1
66 | 125 to 126 °C | Cc1ccc(C2CC3C=CC2C3)n1CCC1CC(O)CC(=O)O1 (centres undefined)
67 | 67 to 69 °C | CCNC(=O)n1nc(Oc2ccc([N+](=O)[O-])c(C)c2)cc1C
68 | 157 °C | COC(=O)CCCc1cc2cc(Cl)ccc2n1S(=O)(=O)c1ccc(N)c([N+](=O)[O-])c1
69 | 85.6 to 86.7 °C | CC(C)(CCCCCCCCCCCCC1(C(=O)O)CC1)C(=O)O
70 | 149 to 152 °C | Cc1cc2nc(C)n(COC(=O)C(C)(C)C)c(=O)c2cc1CBr
71 | 94 to 100 °C | CCCC[C@H](NC(=O)[C@H](CC(C)C)NC(=O)c1ccc(F)c(F)c1)C(=O)CSCc1ccco1
72 | 121 to 123 °C | C#CCn1c2c(c(=O)n(-c3ccc(Cl)c(C(=O)OCC)c3)c1=O)CCC2
73 | 103 to 105 °C | COC(=O)C(=O)c1ccc(OCCOc2ccc(Cl)cc2)cc1
74 | 150 to 153 °C | CC(C)(C)OC(=O)N[C@H]1CCc2ccc(OCCCC(=O)O)cc2C1
75 | 200 to 202 °C | Cn1cc(CCN2C(=O)c3ccccc3C2=O)c2cc(CC(N)=O)ccc21
76 | 130 to 131 °C | CC(=O)c1ccc(CCNS(=O)(=O)c2ccc(Br)cc2)cc1
77 | 130 to 132 °C | CC(=O)N1CCC(CCC(=O)c2ccc3c4c2CCCC4CN3C(C)=O)CC1 (centres undefined)

Row | melting point | SMILES
78 | 113 to 114 °C | COc1cc(Nc2nccc(-c3ccc(NC4CCN(Cc5ccccc5)CC4)nc3)n2)cc(OC)c1OC
79 | 167 to 169 °C | CCNc1nc(OC)c(C(=O)NCC2CCCN2CC)nc1Cl (centres undefined)
80 | 195 to 196 °C | COCC(=O)NCc1cccc(-c2csc(N=C(N)N)n2)n1
81 | 232 to 234 °C | O=C(Cc1ccc(Oc2ccc(F)cc2)cc1)NC1(C(=O)O)Cc2ccc(-c3ccc(Cl)cc3)cc2C1 (centres undefined)
82 | 111 to 113 °C | CCn1cc(CN(C(=O)C2CCCc3cc(OC)ccc32)c2ccc(C(C)C)cc2)cn1 (centres undefined)
83 | 221 °C | COC(=O)COc1ccc(Cn2c(-c3ccc(C(F)(F)F)cc3)c(C)c3cc(OCc4ccccc4)ccc32)cc1
84 | 50 to 53 °C | COC(=O)COc1ccc(N=C=O)cc1
85 | 226 to 228 °C | COc1c(N2CCC(n3nncc3C)C2)c(F)cc2c(=O)c(C(=O)O)cn(C3CC3)c12 (centres undefined)
86 | 169 to 170 °C | CCC(=O)NC1CCc2c([nH]c3ccccc23)C1 (centres undefined)
87 | 140 to 142 °C | O=C(Nc1ccc(OCc2ccccc2)cc1)C(Br)CCBr (racemic)
88 | 236 to 238 °C | CCC1(Cc2ccc(O)cc2)NC(=O)NC1=O (centres undefined)
89 | 140 to 141 °C | Cc1cc(Br)cnc1CCCCN=C(NC#N)NCc1ccccc1
90 | 162 °C | COC(=O)c1c(C(F)(F)F)[nH]c2c(OCc3ccccc3)cc3c(c12)C(CCl)CN3C(=O)OC(C)(C)C (centres undefined)
91 | 69 to 71 °C | CCCCCCOc1c(OC)cc(N)c2nccc(C)c12
92 | 145 to 147 °C | O=C(O)Cc1cccc2c(=O)cc(-c3ccc(F)c(F)c3)oc12
93 | 115 to 156 °C | COCCn1nnnc1C1(c2cccc(C(F)(F)F)c2)C=CC(O)=CC1O (centres undefined)
94 | 95 to 97 °C | COc1ccc2cc(C(C)C(=O)ON3CCCCC3)ccc2c1 (centres undefined)
95 | 69 °C | CCC1CC(=O)N(Cc2ccc(NS(C)(=O)=O)cc2)N=C1c1ccc(OC)c(OC2CCCC2)c1 (centres undefined)
96 | 127 to 128 °C | CCCOC(=O)C1=C(C)NC(C)=C(C(=O)OC)C1c1ccccc1[N+](=O)[O-] (centres undefined)
97 | 167 to 169 °C | Cn1nc(C2(OCC3CCN(C(=O)OC(C)(C)C)CC3)C=CC=CC2)c2ccccc2c1=O (centres undefined)
98 | 180 to 183 °C | Cn1cc(C(=O)NCc2ccc(Cl)cc2)c(=O)c2cc(CN3CCOCC3)cc(C#CCN3CCC(O)CC3)c21
99 | 125 °C | CCC(=O)NC1CCc2cc(OC)ccc2C1 (centres undefined)
